Measurements: patent publication US6737383B1, “Herbicidal oxadiazolidines” (priority 1999, dated 2004)

How the values were obtained:
smallflower flatsedge = test: Test B flood test smallflower flatsedge; assay type: in vivo, Cyperus difformis
How it was run: (§1)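 Read-out is a visual response score from 0 (no effect) to 10 (complete control), assigned by comparison with untreated controls. Treatment was applied at the 2-leaf stage, and plants stayed in the greenhouse for twelve to sixteen days before scoring.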

blackgrass = test: Test B pre/postemergence blackgrass; assay type: in vivo, Alopecurus myosuroides
How it was run: (§2)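 Herbicidal effect was estimated by eye on a ten-point control scale after plants spent twelve to sixteen days in a greenhouse following soil or foliar treatment. Foliar sprays targeted plants at one to four leaves; all doses were formulated in a non-phytotoxic solvent with surfactant.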

velvetleaf = test: Test B pre/postemergence velvetleaf; assay type: in vivo, Abutilon theophrasti
How it was run: as §2

sugar beet = test: Test B pre/postemergence sugar beet; assay type: in vivo, Beta vulgaris
How it was run: as §2

soybean = test: Test B pre/postemergence soybean; assay type: in vivo, Glycine max
How it was run: as §2

rice = test: Test B flood test rice; assay type: in vivo, Oryza sativa
How it was run: as §1

duck salad = test: Test B flood test duck salad; assay type: in vivo, Heteranthera limosa
How it was run: as §1

corn = test: Test B pre/postemergence corn; assay type: in vivo, Zea mays
How it was run: as §2

pigweed = test: Test B pre/postemergence pigweed; assay type: in vivo, Amaranthus retroflexus
How it was run: as §2

purple nutsedge = test: Test B pre/postemergence purple nutsedge; assay type: in vivo, Cyperus rotundus
How it was run: as §2

giant foxtail = test: Test B pre/postemergence giant foxtail; assay type: in vivo, Setaria faberii
How it was run: as §2

morningglory = test: Test B pre/postemergence morningglory; assay type: in vivo, Ipomoea hederacea
How it was run: as §2

wheat = test: Test B pre/postemergence wheat; assay type: in vivo, Triticum aestivum
How it was run: as §2

rape = test: Test B pre/postemergence rape; assay type: in vivo, Brassica napus
How it was run: as §2

crabgrass = test: Test B pre/postemergence crabgrass; assay type: in vivo, Digitaria sanguinalis
How it was run: as §2

cocklebur = test: Test B pre/postemergence cocklebur; assay type: in vivo, Xanthium strumarium
How it was run: as §2

[1] = Rate 62 g/ha, headed Pre-emergence (flood test species), scale 0 to 10 (0 no effect, 10 complete control)
[2] = Rate 125 g/ha, Pre-emergence, flood test species, scale 0 to 10 where 0 is no effect and 10 is complete control
[3] = Rate 250 g/ha, Pre-emergence, flood-test species, scale 0 to 10, 0 is no effect, 10 is complete control
[4] = Rate 500 g/ha, Pre-emergence, flood test species, scale 0 to 10 (0 no effect, 10 complete control)
[5] = Preemergence, Rate 62 g/ha, scale of 0 to 10 where 0 is no effect and 10 is complete control
[6] = Preemergence, Rate 250 g/ha, scale of 0 to 10 where 0 is no effect and 10 is complete control
[7] = Preemergence, Rate 500 g/ha, scale of 0 to 10 where 0 is no effect and 10 is complete control
[8] = Rate 62 g/ha, Postemergence, scale of 0 to 10 where 0 is no effect and 10 is complete control
[9] = Rate 125 g/ha, Postemergence, scale 0 to 10
[10] = Rate 125 g/ha, Preemergence, scale of 0 to 10 where 0 is no effect and 10 is complete control
[11] = Rate 500 g/ha, Postemergence, scale 0 to 10, 0 no effect, 10 complete control

CON=C(Cn1c(=O)on(C(=O)N(c2ccc(F)cc2)C(C)C)c1=O)C(F)(F)F [Compound 227]
2: Blackgrass plant response rating (blackgrass; [5]) | Blackgrass plant response rating (blackgrass; [9]) | Plant response rating, Velvetleaf (velvetleaf; [7]) | Sugarbeets plant response rating (sugar beet; [5]) | Plant response rating, Soybean (soybean; [7]) | Redroot pigweed plant response rating (pigweed; [9]) | Plant response rating (0 to 10; 0 is no effect, 10 is complete control), Cocklebur (cocklebur; Rate 250 g/ha, Postemergence)
6: Sugarbeets plant response rating (sugar beet; [6])
1: Soybean plant response rating (soybean; [8]) | Crabgrass plant response rating (crabgrass; [5])
9: Giant foxtail plant response rating (giant foxtail; [5])
5: Blackgrass plant response rating (blackgrass; [10]) | Sugarbeets plant response rating (sugar beet; [11]) | Soybean plant response rating (soybean; [11]) | Redroot pigweed plant response rating (pigweed; [10]) | Plant response rating (0 to 10; 0 is no effect, 10 is complete control), Redroot pigweed (pigweed; Rate 250 g/ha, Postemergence) | Wheat plant response rating (wheat; [11])
10: Blackgrass plant response rating (blackgrass; [6]) | Plant response rating, Blackgrass (blackgrass; [7]) | Redroot pigweed plant response rating (pigweed; [6]) | Plant response rating, Redroot pigweed (pigweed; [7]) | Giant foxtail plant response rating (giant foxtail; [6]) | Plant response rating, Giant foxtail (giant foxtail; [7]) | Giant foxtail plant response rating (giant foxtail; [10]) | Morningglory plant response rating (morningglory; [11]) | Plant response rating, Rape (rape; [7]) | Crabgrass plant response rating (crabgrass; [6]) | Plant response rating, Crabgrass (crabgrass; [7]) | Crabgrass plant response rating (crabgrass; [10])
3: Velvetleaf plant response rating (velvetleaf; [11]) | Sugarbeets plant response rating (sugar beet; [10]) | Plant response rating (0 to 10; 0 is no effect, 10 is complete control), Sugarbeets (sugar beet; Rate 250 g/ha, Postemergence) | Soybean plant response rating (soybean; [9]) | Redroot pigweed plant response rating (pigweed; [5]) | Plant response rating (0 to 10; 0 is no effect, 10 is complete control), Wheat (wheat; Rate 250 g/ha, Postemergence) | Crabgrass plant response rating (crabgrass; [11]) | Cocklebur plant response rating (cocklebur; [11])
0: S. Flatsedge plant response rating (smallflower flatsedge; [1]) | S. Flatsedge plant response rating (smallflower flatsedge; [2]) | S. Flatsedge plant response rating (smallflower flatsedge; [3]) | S. Flatsedge plant response rating (smallflower flatsedge; [4]) | Blackgrass plant response rating (blackgrass; [8]) | Velvetleaf plant response rating (velvetleaf; [5]) | Velvetleaf plant response rating (velvetleaf; [6]) | Velvetleaf plant response rating (velvetleaf; [8]) | Velvetleaf plant response rating (velvetleaf; [9]) | Velvetleaf plant response rating (velvetleaf; [10]) | Plant response rating (0 to 10; 0 is no effect, 10 is complete control), Velvetleaf (velvetleaf; Rate 250 g/ha, Postemergence) | Sugarbeets plant response rating (sugar beet; [8]) | Sugarbeets plant response rating (sugar beet; [9]) | Soybean plant response rating (soybean; [5]) | Soybean plant response rating (soybean; [6]) | Soybean plant response rating (soybean; [10]) | Rice plant response rating (rice; [1]) | Rice plant response rating (rice; [2]) | Rice plant response rating (rice; [3]) | Rice plant response rating (rice; [4]) | Ducksalad plant response rating (duck salad; [1]) | Ducksalad plant response rating (duck salad; [2]) | Ducksalad plant response rating (duck salad; [3]) | Ducksalad plant response rating (duck salad; [4]) | Corn plant response rating (corn; [5]) | Corn plant response rating (corn; [6]) | Plant response rating, Corn (corn; [7]) | Corn plant response rating (corn; [8]) | Corn plant response rating (corn; [9]) | Corn plant response rating (corn; [10]) | Plant response rating (0 to 10; 0 is no effect, 10 is complete control), Corn (corn; Rate 250 g/ha, Postemergence) | Corn plant response rating (corn; [11]) | Redroot pigweed plant response rating (pigweed; [8]) | Nutsedge plant response rating (purple nutsedge; [5]) | Nutsedge plant response rating (purple nutsedge; [6]) | Nutsedge plant response rating (purple nutsedge; [8]) | Nutsedge plant response rating (purple nutsedge; [9]) | Nutsedge plant response rating (purple nutsedge; [10]) | Plant response rating (0 to 10; 0 is no effect, 10 is complete control), Nutsedge (purple nutsedge; Rate 250 g/ha, Postemergence) | Nutsedge plant response rating (purple nutsedge; [11]) | Giant foxtail plant response rating (giant foxtail; [8]) | Giant foxtail plant response rating (giant foxtail; [9]) | Plant response rating (0 to 10; 0 is no effect, 10 is complete control), Giant foxtail (giant foxtail; Rate 250 g/ha, Postemergence) | Giant foxtail plant response rating (giant foxtail; [11]) | Morningglory plant response rating (morningglory; [5]) | Morningglory plant response rating (morningglory; [6]) | Plant response rating, Morningglory (morningglory; [7]) | Morningglory plant response rating (morningglory; [10]) | Wheat plant response rating (wheat; [5]) | Wheat plant response rating (wheat; [6]) | Plant response rating, Wheat (wheat; [7]) | Wheat plant response rating (wheat; [8]) | Wheat plant response rating (wheat; [9]) | Wheat plant response rating (wheat; [10]) | Rape plant response rating (rape; [5]) | Rape plant response rating (rape; [8]) | Rape plant response rating (rape; [9]) | Plant response rating (0 to 10; 0 is no effect, 10 is complete control), Rape (rape; Rate 250 g/ha, Postemergence) | Rape plant response rating (rape; [11]) | Crabgrass plant response rating (crabgrass; [8]) | Crabgrass plant response rating (crabgrass; [9]) | Plant response rating (0 to 10; 0 is no effect, 10 is complete control), Crabgrass (crabgrass; Rate 250 g/ha, Postemergence) | Cocklebur plant response rating (cocklebur; [5]) | Cocklebur plant response rating (cocklebur; [6]) | Plant response rating, Cocklebur (cocklebur; [7]) | Cocklebur plant response rating (cocklebur; [8]) | Cocklebur plant response rating (cocklebur; [9]) | Cocklebur plant response rating (cocklebur; [10])
4: Plant response rating (0 to 10; 0 is no effect, 10 is complete control), Soybean (soybean; Rate 250 g/ha, Postemergence) | Morningglory plant response rating (morningglory; [8]) | Morningglory plant response rating (morningglory; [9]) | Rape plant response rating (rape; [10])
7: Plant response rating (0 to 10; 0 is no effect, 10 is complete control), Blackgrass (blackgrass; Rate 250 g/ha, Postemergence) | Blackgrass plant response rating (blackgrass; [11]) | Redroot pigweed plant response rating (pigweed; [11])
8: Plant response rating, Sugarbeets (sugar beet; [7]) | Plant response rating (0 to 10; 0 is no effect, 10 is complete control), Morningglory (morningglory; Rate 250 g/ha, Postemergence) | Rape plant response rating (rape; [6])
